How the values were obtained:
Type in all cases: cell-based
[1] = molecular target: T1, hTRPML2 (Homo sapiens, UniProt Q8IZK6); test: fura-2 calcium imaging dose-response and endolysosomal patch-clamp in HEK293 cells; G425A mutation abrogates effect
T1 construct: gene MCOLN2; hTRPML2-YFP
T1 sequence (Q8IZK6 1-566): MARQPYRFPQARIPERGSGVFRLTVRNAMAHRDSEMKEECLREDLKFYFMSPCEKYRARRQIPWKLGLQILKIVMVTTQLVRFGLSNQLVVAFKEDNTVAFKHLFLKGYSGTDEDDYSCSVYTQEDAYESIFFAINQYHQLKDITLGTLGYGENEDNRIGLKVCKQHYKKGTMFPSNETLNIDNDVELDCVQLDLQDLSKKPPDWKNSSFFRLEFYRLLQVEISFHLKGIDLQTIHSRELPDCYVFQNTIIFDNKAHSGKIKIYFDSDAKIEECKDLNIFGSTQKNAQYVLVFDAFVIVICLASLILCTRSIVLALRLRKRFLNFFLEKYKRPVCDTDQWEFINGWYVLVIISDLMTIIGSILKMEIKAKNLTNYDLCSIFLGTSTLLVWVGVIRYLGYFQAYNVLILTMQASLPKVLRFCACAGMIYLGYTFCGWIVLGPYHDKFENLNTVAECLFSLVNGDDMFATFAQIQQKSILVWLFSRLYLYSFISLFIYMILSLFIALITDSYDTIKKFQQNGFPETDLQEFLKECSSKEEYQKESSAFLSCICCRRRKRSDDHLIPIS

[2] = molecular target: T2, mTRPML2 (Mus musculus, UniProt Q8K595); test: fura-2 calcium imaging dose-response in HEK293 cells; endolysosomal patch-clamp in LPS-stimulated mouse macrophages
T2 construct: gene Mcoln2
T2 sequence (Q8K595 1-566): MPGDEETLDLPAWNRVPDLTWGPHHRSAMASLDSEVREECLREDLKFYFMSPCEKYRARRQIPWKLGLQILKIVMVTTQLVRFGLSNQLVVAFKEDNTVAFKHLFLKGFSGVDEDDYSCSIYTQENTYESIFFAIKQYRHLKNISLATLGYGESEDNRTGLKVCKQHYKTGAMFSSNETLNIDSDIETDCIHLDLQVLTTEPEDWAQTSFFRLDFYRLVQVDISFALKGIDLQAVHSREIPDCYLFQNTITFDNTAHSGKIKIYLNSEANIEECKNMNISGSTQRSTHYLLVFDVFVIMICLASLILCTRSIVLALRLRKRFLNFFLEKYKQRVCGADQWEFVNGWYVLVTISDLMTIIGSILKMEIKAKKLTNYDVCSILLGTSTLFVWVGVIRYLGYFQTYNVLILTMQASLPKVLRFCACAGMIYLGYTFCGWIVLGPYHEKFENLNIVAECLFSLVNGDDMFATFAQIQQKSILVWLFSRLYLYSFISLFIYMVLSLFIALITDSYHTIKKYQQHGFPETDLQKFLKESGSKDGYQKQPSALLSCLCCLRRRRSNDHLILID

[3] = molecular target: T3, hTRPML1 (Homo sapiens, UniProt Q9GZU1); test: endolysosomal patch-clamp (LE/LY, HEK293), […], positive control
T3 construct: gene MCOLN1

[4] = molecular target: T4, hTRPML3 (Homo sapiens, UniProt Q8TDD5); test: as above; parameters: gene MCOLN3
T4 sequence (Q8TDD5 1-553): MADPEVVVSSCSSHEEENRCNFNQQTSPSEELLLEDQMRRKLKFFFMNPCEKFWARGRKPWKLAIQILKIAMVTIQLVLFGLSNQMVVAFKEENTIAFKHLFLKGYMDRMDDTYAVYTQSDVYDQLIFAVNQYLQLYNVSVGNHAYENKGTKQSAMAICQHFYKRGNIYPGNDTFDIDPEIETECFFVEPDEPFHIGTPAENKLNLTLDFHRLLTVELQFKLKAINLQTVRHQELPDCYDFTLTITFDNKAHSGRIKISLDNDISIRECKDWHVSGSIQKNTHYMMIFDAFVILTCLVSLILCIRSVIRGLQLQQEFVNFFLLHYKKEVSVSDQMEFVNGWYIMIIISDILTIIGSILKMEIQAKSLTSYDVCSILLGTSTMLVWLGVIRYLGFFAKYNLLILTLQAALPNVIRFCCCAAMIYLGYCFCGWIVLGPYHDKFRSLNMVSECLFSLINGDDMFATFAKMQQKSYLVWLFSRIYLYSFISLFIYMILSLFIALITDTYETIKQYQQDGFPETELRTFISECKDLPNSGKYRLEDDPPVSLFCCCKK

T3 sequence (Q9GZU1 whole entry): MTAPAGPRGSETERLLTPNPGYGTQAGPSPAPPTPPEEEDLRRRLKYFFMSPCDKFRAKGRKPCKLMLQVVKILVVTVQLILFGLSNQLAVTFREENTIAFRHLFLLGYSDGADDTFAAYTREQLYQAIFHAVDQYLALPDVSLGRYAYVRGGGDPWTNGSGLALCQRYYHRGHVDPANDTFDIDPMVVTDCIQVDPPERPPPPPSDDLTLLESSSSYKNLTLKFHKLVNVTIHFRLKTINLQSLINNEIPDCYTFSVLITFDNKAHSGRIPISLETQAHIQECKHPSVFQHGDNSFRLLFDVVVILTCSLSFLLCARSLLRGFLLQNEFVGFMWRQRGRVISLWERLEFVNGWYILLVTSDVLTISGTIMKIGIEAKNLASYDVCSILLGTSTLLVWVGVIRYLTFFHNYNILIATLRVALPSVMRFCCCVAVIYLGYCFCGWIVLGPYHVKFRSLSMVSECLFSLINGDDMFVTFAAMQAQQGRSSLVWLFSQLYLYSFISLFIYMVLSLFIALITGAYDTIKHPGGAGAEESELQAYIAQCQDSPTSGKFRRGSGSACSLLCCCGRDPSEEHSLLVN

SMILES | EC50 [1] | EC50 [2] | endolysosomal patch-clamp (LE/LY, HEK293), 10 μM, positive control [3] | endolysosomal patch-clamp (LE/LY, HEK293), 10 μM, positive control [4]
Clc1cccc(Cl)c1C1=NOC2C3CCC(C3)C12 (stereo not shown) [EVP-22, ML2-SA1] | 1240 ± 120 nM | 2380 ± 10 nM |  | 
CC1CC(C)(C)N(C(=O)CN2C(=O)c3ccccc3C2=O)c2ccccc21 (stereo not shown) [ML-SA1] |  |  | the latter ones were robustly activated by ML-SA1 as a positive control | the latter ones were robustly activated by ML-SA1 as a positive control

From publication PMC6257821, “Selective agonist of TRPML2 reveals direct role in chemokine release from innate immune cells” (eLife, 2018)
